Data as given in US12150447B2, “Plant growth regulator” (University of Washington, priority 2017, dated 2024).

Tests used:
[1] = biological target: T1, wild-type auxin receptor (TIR1) (Arabidopsis thaliana, UniProt Q570C0); assay: Evaluation of binding to auxin receptor (yeast two-hybrid assay), wild-type receptor; conditions: yeast EGY48, LacZ reporter, X-gal, 30° C. for 3 days; wild type auxin receptor with AUX/IAA protein
T1 construct: expressed in transfected cells; host or cells: Saccharomyces cerevisiae strain EGY48
T1 sequence (Q570C0 1-594): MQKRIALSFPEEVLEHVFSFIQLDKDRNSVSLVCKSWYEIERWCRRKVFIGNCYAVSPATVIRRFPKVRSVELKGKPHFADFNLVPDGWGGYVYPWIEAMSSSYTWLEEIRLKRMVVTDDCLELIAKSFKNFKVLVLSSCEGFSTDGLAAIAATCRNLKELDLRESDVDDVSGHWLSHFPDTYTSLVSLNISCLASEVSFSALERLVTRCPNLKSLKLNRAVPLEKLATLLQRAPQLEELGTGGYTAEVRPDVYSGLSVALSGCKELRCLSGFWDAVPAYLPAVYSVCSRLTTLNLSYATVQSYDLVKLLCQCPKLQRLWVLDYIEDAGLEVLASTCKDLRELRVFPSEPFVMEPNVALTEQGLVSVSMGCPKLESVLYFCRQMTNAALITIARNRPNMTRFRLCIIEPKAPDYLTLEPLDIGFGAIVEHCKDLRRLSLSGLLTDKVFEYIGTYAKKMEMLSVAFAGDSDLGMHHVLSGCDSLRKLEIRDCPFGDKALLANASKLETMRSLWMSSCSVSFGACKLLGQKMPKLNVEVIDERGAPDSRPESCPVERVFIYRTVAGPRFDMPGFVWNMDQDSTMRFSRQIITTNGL
T1 sequence (Q38822 1-93 partner limits assumed): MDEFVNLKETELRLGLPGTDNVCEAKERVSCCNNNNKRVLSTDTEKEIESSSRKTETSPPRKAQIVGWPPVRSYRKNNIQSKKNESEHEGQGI
Experimental: (§1) Test Example 1: Evaluation of Binding to Auxin Receptor (Yeast Two-Hybrid Assay
(§2) Specifically, the inventors set up the assay in the following manner.
The transformant was cultured at 30° C. on an agar plate made of yeast growth medium (minimal SD base and -His/-Trp/-Ura dropout supplement). The colonies were picked up and incubated overnight in liquid SD/-His/-Trp/-Ura medium at 30° C. Afterwards, the medium was replaced with a liquid medium composed of minimal SD/Gal/Raf base, -His/-Trp/-Ura dropout supplement, 50 mM Na-phosphate buffer (pH 7.0), […] X-gal, and various concentrations of test compounds. After incubation at 30° C. for 3 days, the medium containing yeast was transferred to a white 96-well plate (flat bottom) and observed.
(§3) In Table 1, the concentration of “wt TIR” indicates the minimum concentration of the test compound in which the well turns blue when the wild type auxin receptor is used, whereas the concentration of “mut” indicates the minimum concentration of the test compound in which the well turns blue when the mutant auxin receptor (TIR1 F79G) is used.

[2] = biological target: T2, mutant auxin receptor (TIR1 F79G) (Arabidopsis thaliana, UniProt Q570C0, F79G); assay: Evaluation of binding to auxin receptor (yeast two-hybrid assay), mutant TIR1 F79G; conditions: for mut TIR: minimum concentration of the test compound in which the well turns blue: yeast EGY48, LacZ reporter, X-gal, 30° C. for 3 days, TIR1 F79G with AUX/IAA protein
T2 construct: expressed in transfected cells; host or cells: Saccharomyces cerevisiae strain EGY48
T2 sequence (Q570C0 whole entry F79G, one chain of several): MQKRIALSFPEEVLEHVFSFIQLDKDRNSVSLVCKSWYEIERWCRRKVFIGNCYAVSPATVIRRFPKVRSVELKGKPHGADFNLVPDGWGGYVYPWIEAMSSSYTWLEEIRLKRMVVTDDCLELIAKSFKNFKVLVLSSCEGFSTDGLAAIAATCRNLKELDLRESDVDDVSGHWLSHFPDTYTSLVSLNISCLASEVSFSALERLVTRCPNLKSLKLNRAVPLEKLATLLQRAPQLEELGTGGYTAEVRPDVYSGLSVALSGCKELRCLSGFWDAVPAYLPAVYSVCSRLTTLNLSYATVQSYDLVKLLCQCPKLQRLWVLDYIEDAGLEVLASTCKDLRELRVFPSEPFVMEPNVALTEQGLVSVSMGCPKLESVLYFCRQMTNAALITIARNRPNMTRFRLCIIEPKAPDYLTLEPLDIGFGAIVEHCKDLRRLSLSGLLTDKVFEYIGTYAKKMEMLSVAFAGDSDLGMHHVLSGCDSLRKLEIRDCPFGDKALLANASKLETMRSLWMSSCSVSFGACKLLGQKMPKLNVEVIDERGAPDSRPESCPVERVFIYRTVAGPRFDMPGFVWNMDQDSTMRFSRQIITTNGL
From the text: as §1, §2
Yeast strain EGY48 was transformed into a plasmid (pSH18-34) containing a LacZ expression cassette (LexA-operon: LacZ reporter) that is transcriptionally regulated by the LexA-operon, a plasmid derived from pGLex313 containing an expression cassette of LexA-DNA-binding domain fusion protein A (the wild-type auxin receptor: SEQ ID NO. 1, or mutant auxin receptor (TIR1 F79G) where the amino acid residue 79 (phenylalanine) in the wild-type is mutated to a glycine: SEQ ID NO. 2), and a plasmid derived from pJG4-5 containing an expression cassette of B42 transcription activator fusion protein B (AUX/IAA protein: SEQ ID NO: 3). The transformant was cultured at 30° C. on an agar plate made of yeast growth medium (minimal SD base and -His/-Trp/-Ura dropout supplement). The colonies were picked up and incubated overnight in liquid SD/-His/-Trp/-Ura medium at 30° C. Afterwards, the medium was replaced with a liquid medium composed of minimal SD/Gal/Raf base, -His/-Trp/-Ura dropout supplement, 50 mM Na-phosphate buffer (pH 7.0), […] X-gal, and various concentrations of test compounds. After incubation at 30° C. for 3 days, the medium containing yeast was transferred to a white 96-well plate (flat bottom) and observed. The lower the concentration of the test compound when blue color appears, the higher the binding between the test compound and the auxin receptor (wild type or mutant) is. Conversely, higher the concentration of test compound when the blue color appears for the first time, the lower the binding between the test compound and the auxin receptor (wild type or mutant).
as §3

Compound | wt TIR: minimum concentration of the test compound in which the well turns blue [1] [µM] | mut TIR: minimum concentration of the test compound in which the well turns blue [2] [µM] | binding affinity of the mutant auxin receptor (TIR1 F79G) relative to that of the wild type auxin receptor ([2]; ratio mutant / wild type, from Table 1)
O=C(O)Cc1c[nH]c2ccc(-c3cc4ccccc4s3)cc12 [Compound 14, 2-(5-(Benzo[b]thiophen-2-yl)-1H-indol-3-yl)acetic acid] | >1 | 0.01 | –
COc1ccccc1-c1ccc2[nH]cc(CC(=O)O)c2c1 [Example 27A, 5-(2-methoxyphenyl)-indole-3-acetic acid] | 100 | 10 | –
COc1cccc(-c2ccc3[nH]cc(CC(=O)O)c3c2)c1 [Example 27B, 5-(3-methoxyphenyl)-indole-3-acetic acid] | 100 | 1 | –
O=C(O)Cc1c[nH]c2ccc(-c3ccc4ccccc4c3)cc12 [Example 27D, 5-(2-naphthyl)-indole-3-acetic acid] | 10 | 0.1 | –
O=C(O)Cc1c[nH]c2ccc(-c3ccccc3)cc12 [Example 42A, 5-(2-Phenyl)-indole-3-acetic acid] | 1 | 0.01 | –
O=C(O)Cc1c[nH]c2ccccc12 [Indole-3-acetic acid, indole-3-acetic acid, reference compound] | 0.1 | >100 | less than 1/1000
Cc1ccccc1-c1ccc2[nH]cc(CC(=O)O)c2c1 [MK-189, 2-(5-(o-tolyl)-1H-indol-3-yl)acetic acid] | 10 | 0.1 | –
Cc1cccc(-c2ccc3[nH]cc(CC(=O)O)c3c2)c1 [MK-190, 2-(5-(m-tolyl)-1H-indol-3-yl)acetic acid] | 10 | 0.1 | –
CC(C)(C)c1ccc(-c2ccc3[nH]cc(CC(=O)O)c3c2)cc1 [MK-198, 2-(5-(4-(tert-butyl)phenyl)-1H-indol-3-yl) acetic acid] | 100 | 10 | –
O=C(O)Cc1c[nH]c2ccc(-c3ccc4c(c3)OCO4)cc12 [MK-209, 2-(5-(benzo[d][1,3]dioxol-5-yl)-1H-indol-3-yl) acetic acid] | 10 | 0.1 | –
CCOc1cccc(-c2ccc3[nH]cc(CC(=O)O)c3c2)c1 [MK-211, 2-(5-(3-ethoxyphenyl)-1H-indol-3-yl)acetic acid] | 100 | 10 | –
Cc1cc(-c2ccc3[nH]cc(CC(=O)O)c3c2)ccc1F [MK-213, 2-(5-(4-fluoro-3-methylphenyl)-1H-indol-3-yl)acetic acid] | 10 | 0.1 | –
COc1ccc(-c2ccc3[nH]cc(CC(=O)O)c3c2)cc1C [MK-214, 2-(5-(4-methoxy-3-methylphenyl)-1H-indol-3-yl)acetic acid] | 100 | 10 | –
Cc1ccc(C)c(-c2ccc3[nH]cc(CC(=O)O)c3c2)c1 [MK-221, 2-(5-(2,5-dimethylphenyl)-1H-indol-3-yl)acetic acid] | >100 | 10 | –
Cc1ccc(-c2ccc3[nH]cc(CC(=O)O)c3c2)cc1C [MK-230, 2-(5-(3,4-dimethylphenyl)-1H-indol-3-yl)acetic acid] | 10 | 0.1 | –
O=C(O)Cc1c[nH]c2cc(-c3ccccc3-c3ccccc3)ccc12 [MK-232, 2-(6-([1,1′-biphenyl]-2-yl)-1H-indol-3-yl)acetic acid] | 100 | 10 | –
Cc1cccc(-c2ccc3c(CC(=O)O)c[nH]c3c2)c1 [MK-245, 2-(6-(m-tolyl)-1H-indol-3-yl)acetic acid] | 10 | 0.1 | –
O=C(O)Cc1c[nH]c2cc(-c3ccc4c(c3)OCO4)ccc12 [MK-247, 2-(6-(benzo[d][1,3]dioxol-5-yl)-1H-indol-3-yl)acetic acid] | 10 | 0.1 | –
O=C(O)Cc1c[nH]c2cc(-c3cccc(Oc4ccccc4)c3)ccc12 [MK-248, 2-(6-(3-phenoxyphenyl)-1H-indol-3-yl)acetic acid] | 10 | 0.1 | –
O=C(O)Cc1c[nH]c2ccc(-c3ccc(F)c(Cl)c3)cc12 [MK-255, 2-(5-(3-chloro-4-fluorophenyl)-1H-indol-3-yl)acetic acid] | 100 | 1 | –
Cc1ccc(Cl)c(-c2ccc3[nH]cc(CC(=O)O)c3c2)c1 [MK-307, 2-(5-(2-chloro-5-methylphenyl)-1H-indol-3-yl)acetic acid] | >100 | 10 | –
O=C(O)Cc1c[nH]c2ccc(-c3cc(Cl)ccc3Cl)cc12 [MK-308, 2-(5-(2,5-dichlorophenyl)-1H-indol-3-yl)acetic acid] | 100 | 10 | –
Cc1ccc(Cl)cc1-c1ccc2[nH]cc(CC(=O)O)c2c1 [MK-309, 2-(5-(5-chloro-2-methylphenyl)-1H-indol-3-yl)acetic acid] | 100 | 10 | –
CCC(C)COc1ccc2[nH]cc(CC(=O)O)c2c1 (centres unmarked) [MK-322, 2-(5-(2-methylbutoxy)-1H-indol-3-yl)acetic acid] | 10 | 0.1 | –
CCCCCCCOc1ccc2[nH]cc(CC(=O)O)c2c1 [MK-323, 2-(5-(heptyloxy)-1H-indol-3-yl)acetic acid] | 100 | 10 | –
O=C(O)Cc1c[nH]c2ccc(OCC3CCCCC3)cc12 [MK-333, 2-(5-(cyclohexylmethoxy)-1H-indol-3-yl)acetic acid] | 100 | 0.1 | –
